Measurements from PMC10191551, “Safety, Tolerability, and Pharmacokinetics of Oral Ferric Maltol in Children With Iron Deficiency: Phase 1 Study” (JPGN Reports, 2021).

Test: Phase 1 study: safety and tolerability (adverse events, vital signs, ECG, laboratory tests, compliance) of oral ferric maltol
Settings: for Patients With an AE: Any AE: safety population
From the text: This phase 1, randomized, open-label, parallel-group pharmacokinetic study involved children seen as outpatients at 6 centers in the UK: Alder Hey Children’s NHS Foundation Trust; King’s College Hospital NHS Foundation Trust; University Hospitals of Leicester NHS Trust; Nottingham University Hospitals NHS Trust; Manchester University NHS Foundation Trust; and University College London Hospitals NHS Foundation Trust. […] Children aged 16 years or older and parents or guardians of children younger than 16 years provided written informed consent to participate before study initiation.
Children aged 10–17 years with confirmed iron deficiency at screening (defined as either ferritin <30 µg/L or ferritin <50 µg/L with transferrin saturation [TSAT] <20%) were eligible for inclusion in the study. Patients with or without anemia could be enrolled, provided hemoglobin was ≥8.5 g/dL at screening. Girls of childbearing potential had to agree to use adequate contraception during and until 4 weeks after the end of the study.
The study comprised a screening period followed by a 10-day randomized treatment period and a post-treatment safety follow-up. Children were randomized 1:1:1 (stratified by age [10–14 vs 15–17 years] and sex) to ferric maltol 7.8 mg, 16.6 mg, or 30 mg twice daily (b.d.) for 9 days and once in the morning of day 10. The first and last doses of ferric maltol were taken in the presence of the investigator. Children took each dose with a glass of water 1 hour before or 2 hours after a meal. Doses were based on daily elemental iron requirements for the broad range of body weights of participants likely to be enrolled, with the aim of finding a minimum effective dose in this age group. The 30 mg b.d. adult dosage was chosen as the highest exposure; dosages of 16.6 mg b.d. and 7.8 mg b.d. were chosen as approximately one-half and one-quarter of the adult dose, respectively, with the exact dose depending on the full fill of available capsule shell sizes.
The primary objectives were to assess iron uptake and ferric maltol pharmacokinetics. Serum iron and TSAT provided measures of iron uptake. In adults, dissociated maltol undergoes rapid glucuronidation and is cleared in urine as maltol glucuronide (36); therefore, in this study, plasma maltol glucuronide was measured to confirm the rate of clearance in children. The secondary objective was to assess the safety and tolerability of ferric maltol in terms of vital signs, AEs, concomitant medications, 12-lead electrocardiograms, and clinical laboratory blood tests.
Safety analyses were conducted in all patients who received at least 1 dose of the study medication and had at least 1 subsequent visit (the safety population). […] Clinically significant changes from baseline in vital signs, physical examination, and routine clinical laboratory abnormalities were also recorded.

Cc1occc(=O)c1[O-].Cc1occc(=O)c1[O-].Cc1occc(=O)c1[O-].[Fe+3] [Ferric maltol]
Patients with a TEAE: Papule (30 mg b.d. (n = 12)): 1 (8.3) n (%) | Patients with a TEAE: Pyrexia (30 mg b.d. (n = 12)): 1 (8.3) n (%) | Patients with a TEAE: Skin abrasion (30 mg b.d. (n = 12)): 0 (0.0) n (%) | Patients with a TEAE: Sneezing (30 mg b.d. (n = 12)): 0 (0.0) n (%) | Patients with a TEAE: Tonsillitis (30 mg b.d. (n = 12)): 0 (0.0) n (%) | Patients with a TEAE: Vomiting (30 mg b.d. (n = 12)): 0 (0.0) n (%) | TEAEs by system organ class: Cardiac disorders (30 mg b.d. (n = 12)): 0 (0.0) n (%) | TEAEs by system organ class: Gastrointestinal disorders (30 mg b.d. (n = 12)): 6 (50.0) n (%) | TEAEs by system organ class: General disorders and administration-site conditions (30 mg b.d. (n = 12)): 2 (16.7) n (%) | TEAEs by system organ class: Injury, poisoning, and procedural complications (30 mg b.d. (n = 12)): 1 (8.3) n (%) | TEAEs by system organ class: Neoplasms benign, malignant, and unspecified (30 mg b.d. (n = 12)): 0 (0.0) n (%) | TEAEs by system organ class: Nervous system disorders (30 mg b.d. (n = 12)): 5 (41.7) n (%) | TEAEs by system organ class: Respiratory, thoracic, and mediastinal disorders (30 mg b.d. (n = 12)): 1 (8.3) n (%) | TEAEs by system organ class: Skin and subcutaneous-tissue disorders (30 mg b.d. (n = 12)): 1 (8.3) n (%) | Patients With an AE: Any AE (30 mg b.d. (n = 12)): 7 (58.3) n (%) | Patients With an AE: Any SAE (Total, all doses (N = 37)): 0 (0.0) n (%) | Patients With an AE: Any TEAE (Total, all doses (N = 37)): 20 (54.1) n (%) | Patients With an AE: TEAE leading to study discontinuation (Total, all doses (N = 37)): 1 (2.7) n (%) | Patients With an AE: TEAE related to study drug (Total, all doses (N = 37)): 9 (24.3) n (%) | Patients with a TEAE: Abdominal distension (Total, all doses (N = 37)): 1 (2.7) n (%) | Patients with a TEAE: Abdominal pain (Total, all doses (N = 37)): 1 (2.7) n (%) | Patients with a TEAE: Anal incontinence (Total, all doses (N = 37)): 1 (2.7) n (%) | Patients with a TEAE: Cellulitis (Total, all doses (N = 37)): 1 (2.7) n (%) | Patients with a TEAE: Constipation (Total, all doses (N = 37)): 1 (2.7) n (%) | Patients with a TEAE: Cough (Total, all doses (N = 37)): 2 (5.4) n (%) | Patients with a TEAE: Diarrhea (Total, all doses (N = 37)): 3 (8.1) n (%) | Patients with a TEAE: Dizziness (Total, all doses (N = 37)): 3 (8.1) n (%) | Patients with a TEAE: Dyspepsia (Total, all doses (N = 37)): 1 (2.7) n (%) | Patients with a TEAE: Dyspnea (Total, all doses (N = 37)): 1 (2.7) n (%) | Patients with a TEAE: Fatigue (Total, all doses (N = 37)): 4 (10.8) n (%) | Patients with a TEAE: Feces discolored (Total, all doses (N = 37)): 5 (13.5) n (%) | Patients with a TEAE: Granuloma skin (Total, all doses (N = 37)): 1 (2.7) n (%) | Patients with a TEAE: Headache (Total, all doses (N = 37)): 7 (18.9) n (%) | Patients with a TEAE: Injection-site pain (Total, all doses (N = 37)): 1 (2.7) n (%) | Patients with a TEAE: Lethargy (Total, all doses (N = 37)): 1 (2.7) n (%) | Patients with a TEAE: Ligament sprain (Total, all doses (N = 37)): 1 (2.7) n (%) | Patients with a TEAE: Lip dry (Total, all doses (N = 37)): 1 (2.7) n (%) | Patients with a TEAE: Nasal congestion (Total, all doses (N = 37)): 1 (2.7) n (%) | Patients with a TEAE: Nasopharyngitis (Total, all doses (N = 37)): 1 (2.7) n (%) | Patients with a TEAE: Nausea (Total, all doses (N = 37)): 2 (5.4) n (%) | Patients with a TEAE: Nevus hemorrhage (Total, all doses (N = 37)): 1 (2.7) n (%) | Patients with a TEAE: Palpitations (Total, all doses (N = 37)): 1 (2.7) n (%) | Patients with a TEAE: Papule (Total, all doses (N = 37)): 1 (2.7) n (%) | Patients with a TEAE: Pyrexia (Total, all doses (N = 37)): 1 (2.7) n (%) | Patients with a TEAE: Skin abrasion (Total, all doses (N = 37)): 1 (2.7) n (%) | Patients with a TEAE: Sneezing (Total, all doses (N = 37)): 1 (2.7) n (%) | Patients with a TEAE: Tonsillitis (Total, all doses (N = 37)): 1 (2.7) n (%) | Patients with a TEAE: Vomiting (Total, all doses (N = 37)): 2 (5.4) n (%) | TEAEs by system organ class: Cardiac disorders (Total, all doses (N = 37)): 1 (2.7) n (%) | TEAEs by system organ class: Gastrointestinal disorders (Total, all doses (N = 37)): 12 (32.4) n (%) | TEAEs by system organ class: General disorders and administration-site conditions (Total, all doses (N = 37)): 5 (13.5) n (%) | TEAEs by system organ class: Injury, poisoning, and procedural complications (Total, all doses (N = 37)): 2 (5.4) n (%) | TEAEs by system organ class: Neoplasms benign, malignant, and unspecified (Total, all doses (N = 37)): 1 (2.7) n (%) | TEAEs by system organ class: Nervous system disorders (Total, all doses (N = 37)): 9 (24.3) n (%) | TEAEs by system organ class: Respiratory, thoracic, and mediastinal disorders (Total, all doses (N = 37)): 4 (10.8) n (%) | TEAEs by system organ class: Skin and subcutaneous-tissue disorders (Total, all doses (N = 37)): 2 (5.4) n (%) | Patients With an AE: Any AE (Total, all doses (N = 37)): 21 (56.8) n (%) | Changes from baseline in vital signs or 12-lead electrocardiogram results (all doses): No clinically meaningful changes | Patients with laboratory abnormalities considered as TEAEs or SAEs (all doses): No patients | Children who experienced a TEAE (all doses, N = 37): 54% | Children with a TEAE related to the study drug (all doses, N = 37): 24% | Deaths or SAEs (all doses, N = 37): no deaths or SAEs | Drug-related TEAE anal incontinence (all doses, N = 37): 1 patient | Drug-related TEAE constipation (all doses, N = 37): 1 patient | Drug-related TEAE diarrhea (all doses, N = 37): 2 n | Drug-related TEAE dizziness (all doses, N = 37): 2 n | Drug-related TEAE dyspepsia (all doses, N = 37): 1 patient | Drug-related TEAE dyspnea (all doses, N = 37): 1 patient | Drug-related TEAE fatigue (all doses, N = 37): 2 n | Drug-related TEAE feces discoloration (all doses, N = 37): 5 n | Drug-related TEAE headache (all doses, N = 37): 3 n | Drug-related TEAE lethargy (all doses, N = 37): 1 patient | Drug-related TEAE nausea (all doses, N = 37): 1 patient | Drug-related TEAE palpitations (all doses, N = 37): 1 patient | Drug-related TEAE papule (all doses, N = 37): 1 patient | Gastrointestinal TEAEs, overall (all doses, N = 37): 32% | Nervous system disorders TEAEs, overall (all doses, N = 37): 24% | TEAE abdominal distension, number of children (all doses, N = 37): 1 n | TEAE abdominal pain, number of children (all doses, N = 37): 1 n | TEAE anal incontinence, number of children (all doses, N = 37): 1 n | TEAE constipation, number of children (all doses, N = 37): 1 n | TEAE diarrhea, number of children (all doses, N = 37): 3 n | TEAE dizziness, number of children (all doses, N = 37): 3 n | TEAE dyspepsia, number of children (all doses, N = 37): 1 n | TEAE fecal discoloration, number of children (all doses, N = 37): 5 n | TEAE headache, number of children (all doses, N = 37): 7 n | TEAE lethargy, number of children (all doses, N = 37): 1 n | TEAE nausea, number of children (all doses, N = 37): 2 n | TEAE vomiting, number of children (all doses, N = 37): 2 n | Children who experienced a TEAE (all doses, N = 37, listed as ferric maltol): 54.1% | Severity of TEAEs (all doses, all recovered or resolved): mild or moderate
